Key:
Assay type in all cases: cell-based
[1] = tested on: PRMT5 (SDMA) in HAP1 MTAP-intact cell line; experiment: SDMA in-cell western assay, HAP1 MTAP-intact cell line; settings: Homo sapiens, HAP1 MTAP-intact cell line (endogenous MTAP), read-out: Hap 1 MTAP intact IC50
Text: (§1) HAP1 MTAP-intact is a cell line in which endogenous levels of MTAP are expressed, and HAP1 MTAP-deleted is an MTAP-null cell line.

[2] = tested on: HAP1 MTAP-deleted cell line; experiment: viability assay for the MTAP-deleted cell line; settings: Homo sapiens
[3] = tested on: PRMT5 (SDMA) in HAP1 MTAP-deleted cell line; experiment: SDMA in-cell western assay, HAP1 MTAP-deleted cell line; settings: for IC50 / IC90: Homo sapiens, SDMA in-cell western, HAP1 MTAP-deleted (MTAP-null) cell line; for Hap1 MTAP intact/deleted ratio: ratio of SDMA in-cell western IC50 in HAP1 MTAP-intact to IC50 in HAP1 MTAP-deleted cell line
Text: as §1

Compound	IC50 [1]	IC50 [3]	IC90 [3]	IC50 [2]	Hap1 MTAP intact/deleted ratio [3]
CCc1cc(NC(=O)C(=O)N2C[C@@H](C)N(C(=O)C3(C(F)(F)F)CC3)C[C@@H]2c2ccc(F)c(Cl)c2)cnc1N [Compound 139, N-(6-amino-5-ethylpyridin-3-yl)-2-((2S,5R)-2-(3-chloro-4-fluorophenyl)-5-methyl-4-(1-(trifluoromethyl)cyclopropanecarbonyl)piperazin-1-yl)-2-oxoacetamide]	5 to 50 nM	< 5 nM	< 75 nM	< 100 nM	B (an IC50 ratio greater than or equal to 15 fold but lower than 30 fold)
CCc1cc(NC(=O)C(=O)N2CCN(C(=O)C3(C(F)(F)F)CC3)C[C@@H]2c2ccc(F)c(Cl)c2)cnc1N [Compound 47, N-(6-amino-5-ethyl-3-pyridyl)-2-[(2S)-2-(3-chloro-4-fluoro-phenyl)-4-[1-(trifluoromethyl)cyclopropanecarbonyl]piperazin-1-yl]-2-oxo-acetamide]	> 50 nM	> 50 nM	> 125 nM	> 1000 nM	C (an IC50 ratio of less than 15 fold)
CC(C)C(=O)N1C[C@H](c2ccc3scnc3c2)N(C(=O)C(=O)Nc2cnc(N)c(C3CC3)c2)C[C@H]1C [Compound 93, N-(6-amino-5-cyclopropyl-3-pyridyl)-2-[(2S,5R)-2-(1,3-benzothiazol-5-yl)-5-methyl-4-(2-methylpropanoyl)piperazin-1-yl]-2-oxo-acetamide]	5 to 50 nM	5 to 50 nM	< 75 nM	< 100 nM	C (an IC50 ratio of less than 15 fold)
Cc1cc(NC(=O)C(=O)N2C[C@@H](C)N(C(=O)C3(C(F)(F)F)CC3)C[C@@H]2c2cccc(C(F)(F)F)c2)cnc1N [Compound 137, N-(6-amino-5-methylpyridin-3-yl)-2-((2S,5R)-5-methyl-4-(1-(trifluoromethyl)cyclopropanecarbonyl)-2-(3-(trifluoromethyl)phenyl)piperazin-1-yl)-2-oxoacetamide]	> 50 nM	5 to 50 nM	> 125 nM	< 100 nM	B (an IC50 ratio greater than or equal to 15 fold but lower than 30 fold)
Cc1cc(NC(=O)C(=O)N2C[C@@H](C)N(C(=O)C3(C)CCN(C)C3)C[C@@H]2c2ccccc2)cnc1N (some centres unmarked) [Compound 34]	> 50 nM	5 to 50 nM	> 125 nM	100 to 1000 nM	B (an IC50 ratio greater than or equal to 15 fold but lower than 30 fold)
Cc1cc(NC(=O)C(=O)N2C[C@@H](C)N(C(=O)CC3(C)CC3)C[C@@H]2c2ccccc2)cnc1N [Compound 49]	> 50 nM	5 to 50 nM	75 to 125 nM	100 to 1000 nM	C (an IC50 ratio of less than 15 fold)
CC(C)C(=O)N1C[C@H](c2ccc(N3CCN(C)CC3)cc2)N(C(=O)C(=O)Nc2cnc(N)c(C3CC3)c2)C[C@H]1C (racemic) [Compound 4, rac-N-(6-amino-5-cyclopropylpyridin-3-yl)-2-((2R,5S)-4-isobutyryl-5-methyl-2-(4-(4-methylpiperazin-1-yl)phenyl)piperazin-1-yl)-2-oxoacetamide]	> 50 nM	5 to 50 nM	> 125 nM	100 to 1000 nM	C (an IC50 ratio of less than 15 fold)

The next lines start with results.

IC50 [1]	IC50 [3]	IC90 [3]	Compound	IC50 [2]	Hap1 MTAP intact/deleted ratio [3]
> 50 nM	5 to 50 nM	> 125 nM	Cc1cccc([C@H]2CN(C(=O)C3(C)CC3)[C@H](C)CN2C(=O)C(=O)Nc2cnc(N)c(C)c2)c1 [Compound 40, N-(6-amino-5-methylpyridin-3-yl)-2-((2S,5R)-5-methyl-4-(1-methylcyclopropanecarbonyl)-2-(m-tolyl)piperazin-1-yl)-2-oxoacetamide]	< 100 nM	C (an IC50 ratio of less than 15 fold)
> 50 nM	5 to 50 nM	< 75 nM	CCc1cc(NC(=O)C(=O)N2C[C@@H](C)N(C(=O)OC(C)(C)C)C[C@@H]2c2ccc(F)cc2)cnc1N [Compound 145, (2R,5S)-tert-butyl 4-(2-((6-amino-5-ethylpyridin-3-yl)amino)-2-oxoacetyl)-5-(4-fluorophenyl)-2-methylpiperazine-1-carboxylate]	< 100 nM	B (an IC50 ratio greater than or equal to 15 fold but lower than 30 fold)
> 50 nM	< 5 nM	–	C[C@@H]1CN(C(=O)C(=O)Nc2cnc(N)c3cn[nH]c23)[C@@H](c2ccccc2)CN1C1(C)CC1 (racemic) [Compound 167, N-(4-Amino-1H-pyrazolo[4,3-c]pyridin-7-yl)-2-oxo-2-[rac-(2S,5R)-5-methyl-4-(1-methylcyclopropyl)-2-phenyl-piperazin-1-yl]acetamide]	< 100 nM	A (an IC50 ratio greater than or equal to 30 fold)
> 50 nM	5 to 50 nM	< 75 nM	CC(C)C(=O)N1C[C@H](c2ccc(F)cc2)N(C(=O)C(=O)Nc2cnc(N)c(C3CC3)c2)C[C@H]1C [Compound 86, N-(6-amino-5-cyclopropylpyridin-3-yl)-2-((2S,5R)-2-(4-fluorophenyl)-4-isobutyryl-5-methylpiperazin-1-yl)-2-oxoacetamide]	< 100 nM	C (an IC50 ratio of less than 15 fold)
> 50 nM	< 5 nM	< 75 nM	CC(C)C(=O)N1CCN(C(=O)C(=O)Nc2cnc(N)c3cn[nH]c23)[C@@H](c2ccccc2)C1 [Compound 126, (S)—N-(4-amino-1H-pyrazolo[4,3-c]pyridin-7-yl)-2-(4-isobutyryl-2-phenylpiperazin-1-yl)-2-oxoacetamide]	100 to 1000 nM	A (an IC50 ratio greater than or equal to 30 fold)
> 50 nM	< 5 nM	> 125 nM	C[C@@H]1CN(C(=O)C(=O)Nc2cnc(N)c(C3CC3)c2)[C@@H](c2ccc(F)cc2)CN1C(=O)OC(C)(C)C (stereo in doubt) [Compound 148, tert-butyl 4-(2-((6-amino-5-cyclopropylpyridin-3-yl)amino)-2-oxoacetyl)-5-(4-fluorophenyl)-2-methylpiperazine-1-carboxylate]	< 100 nM	A (an IC50 ratio greater than or equal to 30 fold)
5 to 50 nM	< 5 nM	< 75 nM	C[C@@H]1CN(C(=O)C(=O)Nc2cnc(N)c3cn[nH]c23)[C@@H](c2ccc(F)cc2)CN1C(=O)C(C)(C)C [Compound 46]	< 100 nM	C (an IC50 ratio of less than 15 fold)
5 to 50 nM	5 to 50 nM	< 75 nM	C[C@@H]1CN(C(=O)C(=O)Nc2cnc(N)c(C3COC3)c2)[C@@H](c2ccccc2)CN1C(=O)C(C)(C)C [Compound 127, N-(6-amino-5-(oxetan-3-yl)pyridin-3-yl)-2-((2S,5R)-5-methyl-2-phenyl-4-pivaloylpiperazin-1-yl)-2-oxoacetamide]	< 100 nM	C (an IC50 ratio of less than 15 fold)

From patent US20250282749A1 (Tango Therapeutics, Inc., priority 2022, published 2025)
